Data set [1] has as its target T1, KOR (Cavia porcellus, UniProt P41144).
T1 construct: from tissue; host or cells: guinea pig brain membranes
Description: KOR competitive radioligand binding ([3H]-(+)-U69,593 displacement, guinea pig brain membranes).

Data set [2] relates to acute thermal nociception. In words: Radiant heat tail flick test in mice. It counts as in vivo, mouse. On the procedure:
The MOR agonist 5c was evaluated for acute agonistic effects in mice. In detail, it was tested for its ability to produce antinociception in the mouse tail flick test at the dose-range of 1–7 mg/kg intraperitoneal (ip) injected. The compound produced a dose-dependent analgesic effect compared to the group of mice treated with saline (* p < 0.05 vs. saline-treated mice).
Animals. Male Swiss […] mice (Envigo Laboratories, S. Pietro al Natisone (UD), Italy) weighing 25–30 g were housed six to a cage. Animals were kept at a constant room temperature (25 ± 1 °C) under a 12:12 h light and dark cycle with free access to food and water. Each mouse was used for only one experiment.
Nociceptive Test. Nociception was evaluated by the radiant heat tail-flick test. Briefly, it consisted of irradiation of the lower third of the tail with an infrared source (Ugo Basile, Comerio, Italy). The day before the experiment, mice were habituated to the procedure for measuring nociception threshold. Experiments were performed at room temperature (25 ± 1 °C). The basal pre-drug latency was established between 3 and 5 s and was calculated as the average of the first three measurements, which were performed at 5 min intervals. A cut-off latency of 15 s was established to minimize damage to the tail. All tested compounds were dissolved in pyrogen-free isotonic saline (Baxter Healthcare, Deerfield, IL, USA) and DMSO (5%) and were administered to mice ip. Post-treatment tail flick latencies (TFLs) were determined at 30, 45, 60, 75 and 90 min after ip injection.
Statistical Analysis. All values were presented as means ± SD. Intergroup comparisons were assessed using an initial two-way analysis of variance (ANOVA) followed by Duncan’s multiple range post-hoc test. Differences were considered significant when * p < 0.05. Effective dose-50 (ED50) values were calculated using least-squares linear regression analysis followed by calculation of 95% confidence limits (95% CL) by the method of Bliss.
A general note: Hot-plate and tail-flick tests time the reaction to a heat stimulus.

Data set [3] deals with T2, KOR (Homo sapiens, UniProt P41145).
T2 construct: FLAG; expressed in transfected cells
In words: Inhibition of forskolin-stimulated cAMP accumulation in HEK293 cells stably expressing KOR. In kind it is cell-based. The following applies: HEK293-KOR, only at very high concentrations; not dose-dependent. On the procedure:
As typical Gi/o coupled receptor, MOR, DOR and KOR signals are mediated by AC inhibition. Given the significant MOR and moderate KOR affinity, to examine the functional role of target compounds, in opioid receptor signaling, the ability of 5a–d and 6a–d to affect forskolin-stimulated AC activity in HEK293 cells stably expressing the MOR or KOR was tested and the results are reported in Table 2.
(§1) Cell culture. HEK293 cells stably expressing either the EE-tagged MOR or the flag-tagged KOR [20, 21, 22] were grown in Dulbecco’s modified Eagle’s medium (DMEM) supplemented with 10% fetal calf serum, 2 mM glutamine, 100 U/mL penicillin, and 0.1 mg/mL streptomycin under 5% CO2 at 37 °C.
(§2) Measurements of cAMP accumulation. Measurements of AC activity were performed as described by Papakonstantinou et al. or the GloSensor cAMP Assay (Promega) following the Manufacturer’s instructions. The generation of cAMP was assessed in response to treatment of the cells with various concentrations of the appropriate ligand (10 pM–50 μΜ) using 50 μΜ forskolin at 37 °C. Values are means ± SD of triplicate determinations from three independent experiments. Analysis of the data was performed using Origin 7.5 software (OriginLab Corporation, Northampton, MA, USA).

In data set [4] the target is T3, MOR (Rattus norvegicus, UniProt P33535). In words: MOR competitive radioligand binding ([3H]-DAMGO displacement, rat brain membranes). Set-up: from tissue; host or cells: rat brain membranes.
In data set [5] the target is T4, DOR (Rattus norvegicus, UniProt P33533).
T4 construct: from tissue; host or cells: rat brain membranes
In words: DOR competitive radioligand binding ([3H]-DPDPE displacement, rat brain membranes).

In data set [6] the target is T3, MOR. In words: Inhibition of forskolin-stimulated cAMP accumulation in HEK293 cells stably expressing MOR. In kind it is cell-based. The following applies: for Emax: maximal percent inhibition of cAMP accumulation, read-out: Imax (%) ± SD MOR. The procedure: As typical Gi/o coupled receptor, MOR, DOR and KOR signals are mediated by AC inhibition.
as §1, §2
For orientation: cAMP levels reflect the balance of adenylyl cyclase and phosphodiesterase activity.

For data set [7], the system named is DOR. Also noted: method as in PMID 20599386. The following applies: earlier work; read-out: IC50 DOR (intrinsic activity); cited from earlier work.
Details of data set [8]: method as in PMID 22100511, PMID 22580287. The following applies: in vivo tested; cited from earlier work.

The source of these data is article PMC6017588, “Synthesis and Structure-Activity Relationships of LP1 Derivatives: N-Methyl-N-phenylethylamino Analogues as Novel MOR Agonists” (Molecules : A Journal of Synthetic Chemistry and Natural …, 2018).

Structures are written as SMILES. Where a name gives a salt, the structure may show the parent alone. Read-outs that look alike come from different tables or passages of the source.

As usually defined, the melting point is the temperature of the solid-liquid transition. In the case of `C[C@H]1[C@H]2Cc3ccc(O)cc3[C@]1(C)CCN2CCNC1CCCCC1` (as salt: oxalate) [5b, (2R,6R,11R)-3-[2-(Cyclohexylamino)ethyl)-6,11-dimethyl-1,2,3,4,5,6-hexahydro-2,6-methano-3-benzazocin-8-ol], the melting point lay within 153 to 155 °C.

In the case of `C[C@H]1[C@H]2Cc3ccc(O)cc3[C@]1(C)CCN2CCCN(C)c1ccccc1` (as salt: oxalate) [6c, (2R,6R,11R)-6,11-Dimethyl-{3-[methyl(phenyl)amino]propyl}-1,2,3,4,5,6-hexahydro-2,6-methano-3-benzazocin-8-ol], the melting point was in the range of 140 to 142 °C.

`C[C@H]1[C@H]2Cc3ccc(O)cc3[C@]1(C)CCN2CCNc1ccccc1` (as salt: oxalate) [5a, (2R,6R,11R)-3-(2-Anilinoethyl)-6,11-dimethyl-1,2,3,4,5,6-hexahydro-2,6-methano-3-benzazocin-8-ol] displayed a melting point of 145 to 146 °C.

In general, Ki refers to a dissociation constant, usually derived from enzyme kinetics or from competition with a known ligand. As usually defined, the ED50 is the midpoint of the dose-response relation. For the compound `C[C@H]1[C@H]2Cc3ccc(O)cc3[C@]1(C)CCN2CCN(C)c1ccccc1` [5c, (2R,6R,11R)-6,11-Dimethyl-{2-[methyl(phenyl)amino]ethyl}-1,2,3,4,5,6-hexahydro-2,6-methano-3-benzazocin-8-ol], the inhibition constant Ki at KOR [1] turned out to be 31 ± 1.3 nM; on MOR [4], 6.1 ± 0.5 nM; on DOR [5], 147 ± 5.7 nM. Besides, the 50% effective dose (ED50) in data set [2] (0.75 h, mouse tail flick, ip, 45 min post-treatment, read-out: ED50 (95% CL)) was 4.33 mg/kg. The “Time of maximal antinociceptive activity” value in data set [2] (after ip injection, mouse tail flick) was 45 min. Besides, the “Duration of significant antinociceptive activity” value in data set [2] (highest dose (7 mg/kg ip), after injection) is recorded as 75 min. Also, in data set [2] (naloxone 3 mg/kg sc, 30 min prior to 5c, data not shown), the “Effect of naloxone pretreatment on antinociception” value is on record as “prevented its antinociceptive effect”. For the same compound, the cAMP inhibition on KOR [3] stood at 30%. Further, at MOR [6] (cAMP accumulation), the “Functional profile at MOR” value is “MOR agonist”. Moreover, on MOR [6], the Emax was 72%.

A word on the IC50: it is the midpoint of a concentration-inhibition curve. `C[C@H]1[C@H]2Cc3ccc(O)cc3[C@]1(C)CCN2CCC(=O)Nc1ccccc1` [LP1, reference compound]: the IC50 in the data set on DOR [7] is 12 nM. Further, the Ki on KOR [1] ([3H]U69,593 displacement, guinea pig brain membranes, read-out: Ki (nM) ± SEM KOR) stood at 110 ± 6 nM; at MOR [4] ([3H]DAMGO displacement, rat brain membranes, read-out: Ki (nM) ± SEM MOR), 0.83 ± 0.05 nM; on DOR [5] ([3H]DPDPE displacement, rat brain membranes, read-out: Ki (nM) ± SEM DOR), 29.1 ± 1 nM. The “ED50 (analgesia)” value in data set [8] is on record as 2.03 mg/kg. Further, on MOR [6], the Emax amounted to 73 ± 3.8%.

The compound `C[C@H]1[C@H]2Cc3ccc(O)cc3[C@]1(C)CCN2CCCNc1ccccc1` (as salt: oxalate) [6a, (2R,6R,11R)-3-(3-Anilinopropyl)-6,11-dimethyl-1,2,3,4,5,6-hexahydro-2,6-methano-3-benzazocin-8-ol] gave a melting point of 149 to 150 °C.

In the case of `CCN(CCCN1CC[C@@]2(C)c3cc(O)ccc3C[C@@H]1[C@@H]2C)c1ccccc1` (as salt: oxalate) [6d, (2R,6R,11R)-6,11-Dimethyl-{3-[ethyl(phenyl)amino]propyl}-1,2,3,4,5,6-hexahydro-2,6-methano-3-benzazocin-8-ol], the melting point lay within 138 to 139 °C.

Consider `C[C@H]1[C@H]2Cc3ccc(O)cc3[C@]1(C)CCN2CCCNC1CCCCC1` (as salt: oxalate) [6b, (2R,6R,11R)-3-[3-(Cyclohexylamino)propyl)-6,11-dimethyl-1,2,3,4,5,6-hexahydro-2,6-methano-3-benzazocin-8-ol], for which the melting point was 136 to 138 °C.
